These compounds were tested against recombinant DYRK1A kinase (Homo sapiens (Human), UniProt Q13627) (assay: DYRK1A kinase assay (Ser/Thr 18 peptide Z-lyte FRET assay)). Details: DYRK1A 0.25 μg/mL, ATP 15 μM, Ser/Thr peptide 18 4 μM; one hour at room temperature; 11-point dose-response, duplicate.
Type: biochemical
Procedure, shortened: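 Z-lyte FRET assay on Ser/Thr 18 peptide, kinase activity read as coumarin/fluorescein emission ratio; compounds incubated 1 h at room temperature, then development reagent 1 h, in duplicate. Phosphorylated and unphosphorylated peptide served as controls; IC50 by non-linear regression of dose-response curves.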

| Structure (SMILES) | IC50 [nM] |
| --- | --- |
| Nc1nc(N[C@H]2CC[C@@H](OC(F)F)CC2)nn2ccc(-c3ccc4nnn(CC(F)F)c4n3)c12 [Compound 1000, 5-(3-(2,2-Difluoroethyl)-3H-[1,2,3]triazolo[4,5-b]pyridin-5-yl)-N^2-(cis-4-(difluoromethoxy)cyclohexyl)pyrrolo[2,1-f][1,2,4]triazine-2,4-diamine] | 5.1 |
| CNc1nc(N[C@H]2CCN(C(C)=O)C[C@H]2F)nn2ccc(-c3ccc4ncn(CCF)c4n3)c12 [Compound 1002, 1-((3R,4S)-3-Fluoro-4-((5-(3-(2-fluoroethyl)-3H-imidazo[4,5-b]pyridin-5-yl)-4-(methylamino)pyrrolo[2,1-f][1,2,4]triazin-2-yl)amino)piperidin-1-yl)ethan-1-one] | 1.1 |
| CNc1nc(N[C@H]2CCN(C3COC3)C[C@H]2F)nn2ccc(-c3ccc4ncn(CCF)c4n3)c12 [Compound 1003, N^2-((3R,4S)-3-Fluoro-1-(oxetan-3-yl)piperidin-4-yl)-5-(3-(2-fluoroethyl)-3H-imidazo[4,5-b]pyridin-5-yl)-N4-methylpyrrolo[2,1-f][1,2,4]triazine-2,4-diamine] | 1.1 |
| CNc1nc(NC2CCC(F)(F)CC2)nn2ccc(-c3ccc4ncn(CC(F)F)c4n3)c12 [Compound 1007, N^2-(4,4-Difluorocyclohexyl)-5-(3-(2,2-difluoroethyl)-3H-imidazo[4,5-b]pyridin-5-yl)-N^4-methylpyrrolo[2,1-f][1,2,4]triazine-2,4-diamine] | 4.1 |
| CNc1nc(N[C@H]2CC[C@@](C)(O)CC2)nn2ccc(-c3ccc4ncn(CC(F)F)c4n3)c12 [Compound 1008, (1r,4r)-4-((5-(3-(2,2-Difluoroethyl)-3H-imidazo[4,5-b]pyridin-5-yl)-4-(methylamino)pyrrolo[2,1-f][1,2,4]triazin-2-yl)amino)-1-methylcyclohexan-1-ol] | 0.4 |
| CNc1nc(N[C@H]2CCN(C3COC3)C[C@H]2F)nn2ccc(-c3ccc4ncn(CC(F)F)c4n3)c12 [Compound 1009, 5-(3-(2,2-Difluoroethyl)-3H-imidazo[4,5-b]pyridin-5-yl)-N^2-((3R,4S)-3-fluoro-1-(oxetan-3-yl)piperidin-4-yl)-N4-methylpyrrolo[2,1-f][1,2,4]triazine-2,4-diamine] | 2 |
| CNc1nc(N[C@H]2CCN(C(C)=O)C[C@H]2F)nn2ccc(-c3ccc4ncn(CC(F)F)c4n3)c12 [Compound 1012, 1-((3R,4S)-4-((5-(3-(2,2-Difluoroethyl)-3H-imidazo[4,5-b]pyridin-5-yl)-4-(methylamino)pyrrolo[2,1-f][1,2,4]triazin-2-yl)amino)-3-fluoropiperidin-1-yl)ethan-1-one] | 0.5 |
| CNc1nc(N[C@@H]2CCN(C3COC3)CC2(F)F)nn2ccc(-c3ccc4ncn(CC(F)F)c4n3)c12 [Compound 1013, (R)—N^2-(3,3-Difluoro-1-(oxetan-3-yl)piperidin-4-yl)-5-(3-(2,2-difluoroethyl)-3H-imidazo[4,5-b]pyridin-5-yl)-N4-methylpyrrolo[2,1-f][1,2,4]triazine-2,4-diamine] | 0.9 |
| CNc1nc(N[C@H]2CCN(C3COC3)C[C@H]2F)nn2ccc(-c3ccc4ncn(CC(F)(F)F)c4n3)c12 [Compound 1016, N^2-((3R,4S)-3-Fluoro-1-(oxetan-3-yl)piperidin-4-yl)-N^4-methyl-5-(3-(2,2,2-trifluoroethyl)-3H-imidazo[4,5-b]pyridin-5-yl)pyrrolo[2,1-f][1,2,4]triazine-2,4-diamine] | 1.5 |
| CNc1nc(N[C@@H]2CCN(C)CC2(F)F)nn2ccc(-c3ccc4ncn(CC(F)(F)F)c4n3)c12 [Compound 1017, (R)—N^2-(3,3-Difluoro-1-methylpiperidin-4-yl)-N^4-methyl-5-(3-(2,2,2-trifluoroethyl)-3H-imidazo[4,5-b]pyridin-5-yl)pyrrolo[2,1-f][1,2,4]triazine-2,4-diamine] | 1.7 |
| CNc1nc(N[C@@H]2CCN(C(C)=O)CC2(F)F)nn2ccc(-c3ccc4ncn(CC(F)(F)F)c4n3)c12 [Compound 1018, (R)-1-(3,3-Difluoro-4-((4-(methylamino)-5-(3-(2,2,2-trifluoroethyl)-3H-imidazo[4,5-b]pyridin-5-yl)pyrrolo[2,1-f][1,2,4]triazin-2-yl)amino)piperidin-1-yl)ethan-1-one] | 1.6 |
| CNc1nc(N[C@H]2CCN(C(C)=O)C[C@H]2F)nn2ccc(-c3ccc4nc(C)n(CCF)c4n3)c12 [Compound 1020, 1-((3R,4S)-3-Fluoro-4-((5-(3-(2-fluoroethyl)-2-methyl-3H-imidazo[4,5-b]pyridin-5-yl)-4-(methylamino)pyrrolo[2,1-f][1,2,4]triazin-2-yl)amino)piperidin-1-yl)ethan-1-one] | 2.1 |
| CNc1nc(N[C@@H]2CCN(C(C)=O)CC2(F)F)nn2ccc(-c3ccc4nc(C)n(CCF)c4n3)c12 [Compound 1021, (R)-1-(3,3-Difluoro-4-((5-(3-(2-fluoroethyl)-2-methyl-3H-imidazo[4,5-b]pyridin-5-yl)-4-(methylamino)pyrrolo[2,1-f][1,2,4]triazin-2-yl)amino)piperidin-1-yl)ethan-1-one] | 1.3 |
| CNc1nc(N[C@H]2CCN(C(C)=O)C[C@H]2F)nn2ccc(-c3ccc4nc(C)n(CC(F)F)c4n3)c12 [Compound 1022, 1-((3R,4S)-4-((5-(3-(2,2-Difluoroethyl)-2-methyl-3H-imidazo[4,5-b]pyridin-5-yl)-4-(methylamino)pyrrolo[2,1-f][1,2,4]triazin-2-yl)amino)-3-fluoropiperidin-1-yl)ethan-1-one] | 0.4 |
| CNc1nc(N[C@@H]2CCN(C(C)=O)CC2(F)F)nn2ccc(-c3ccc4nc(C)n(CC(F)F)c4n3)c12 [Compound 1023, (R)-1-(4-((5-(3-(2,2-Difluoroethyl)-2-methyl-3H-imidazo[4,5-b]pyridin-5-yl)-4-(methylamino)pyrrolo[2,1-f][1,2,4]triazin-2-yl)amino)-3,3-difluoropiperidin-1-yl)ethan-1-one] | 4.7 |

Continued by falling IC50, values first:

| IC50 [nM] | Structure (SMILES) |
| --- | --- |
| 10.1 | CNc1nc(NC2CCC(F)(F)CC2)nn2ccc(-c3ccc4ncn(CC(F)(F)F)c4n3)c12 [Compound 1014, N^2-(4,4-Difluorocyclohexyl)-N^4-methyl-5-(3-(2,2,2-trifluoroethyl)-3H-imidazo[4,5-b]pyridin-5-yl)pyrrolo[2,1-f][1,2,4]triazine-2,4-diamine] |
| 9.2 | CC(=O)N1CC[C@@H](Nc2nc(N)c3c(-c4ccc5nc(C)n(CCF)c5n4)ccn3n2)C(F)(F)C1 [Compound 998, (R)-1-(4-((4-Amino-5-(3-(2-fluoroethyl)-2-methyl-3H-imidazo[4,5-b]pyridin-5-yl)pyrrolo[2,1-f][1,2,4]triazin-2-yl)amino)-3,3-difluoropiperidin-1-yl)ethan-1-one] |
| 2.2 | CNc1nc(NC2CCC(F)(F)CC2)nn2ccc(-c3ccc4ncn(CCF)c4n3)c12 [Compound 1001, N^2-(4,4-Difluorocyclohexyl)-5-(3-(2-fluoroethyl)-3H-imidazo[4,5-b]pyridin-5-yl)-N^4-methylpyrrolo[2,1-f][1,2,4]triazine-2,4-diamine] |
| 1.8 | Cc1nc2ccc(-c3ccn4nc(N[C@@H]5CCN(C6COC6)CC5(F)F)nc(N)c34)nc2n1CCF [Compound 999, (R)—N^2-(3,3-Difluoro-1-(oxetan-3-yl)piperidin-4-yl)-5-(3-(2-fluoroethyl)-2-methyl-3H-imidazo[4,5-b]pyridin-5-yl)pyrrolo[2,1-f][1,2,4]triazine-2,4-diamine] |
| 1.7 | CNc1nc(N[C@@H]2CCN(C3COC3)CC2(F)F)nn2ccc(-c3ccc4ncn(CC(F)(F)F)c4n3)c12 [Compound 1019, (R)—N^2-(3,3-Difluoro-1-(oxetan-3-yl)piperidin-4-yl)-N^4-methyl-5-(3-(2,2,2-trifluoroethyl)-3H-imidazo[4,5-b]pyridin-5-yl)pyrrolo[2,1-f][1,2,4]triazine-2,4-diamine] |
| 1.4 | CNc1nc(N[C@@H]2CCN(C)CC2(F)F)nn2ccc(-c3ccc4ncn(CC(F)F)c4n3)c12 [Compound 1011, (R)—N^2-(3,3-Difluoro-1-methylpiperidin-4-yl)-5-(3-(2,2-difluoroethyl)-3H-imidazo[4,5-b]pyridin-5-yl)-N^4-methylpyrrolo[2,1-f][1,2,4]triazine-2,4-diamine] |
| 1.4 | CNc1nc(N[C@H]2CCN(C(C)=O)C[C@H]2F)nn2ccc(-c3ccc4ncn(CC(F)(F)F)c4n3)c12 [Compound 1015, 1-((3R,4S)-3-Fluoro-4-((4-(methylamino)-5-(3-(2,2,2-trifluoroethyl)-3H-imidazo[4,5-b]pyridin-5-yl)pyrrolo[2,1-f][1,2,4]triazin-2-yl)amino)piperidin-1-yl)ethan-1-one] |
| 1.1 | CNc1nc(N[C@@H]2CCN(C)CC2(F)F)nn2ccc(-c3ccc4ncn(CCF)c4n3)c12 [Compound 1004, (R)—N^2-(3,3-Difluoro-1-methylpiperidin-4-yl)-5-(3-(2-fluoroethyl)-3H-imidazo[4,5-b]pyridin-5-yl)-N^4-methylpyrrolo[2,1-f][1,2,4]triazine-2,4-diamine] |
| 0.9 | CNc1nc(N[C@@H]2CCN(C3COC3)CC2(F)F)nn2ccc(-c3ccc4ncn(CCF)c4n3)c12 [Compound 1005, (R)—N^2-(3,3-Difluoro-1-(oxetan-3-yl)piperidin-4-yl)-5-(3-(2-fluoroethyl)-3H-imidazo[4,5-b]pyridin-5-yl)-N^4-methylpyrrolo[2,1-f][1,2,4]triazine-2,4-diamine] |
| 0.5 | CNc1nc(N[C@@H]2CCN(C(C)=O)CC2(F)F)nn2ccc(-c3ccc4ncn(CC(F)F)c4n3)c12 [Compound 1010, (R)-1-(4-((5-(3-(2,2-Difluoroethyl)-3H-imidazo[4,5-b]pyridin-5-yl)-4-(methylamino)pyrrolo[2,1-f][1,2,4]triazin-2-yl)amino)-3,3-difluoropiperidin-1-yl)ethan-1-one] |
